The values that follow come from patent publication US20260306460A1, “COMPOSITION FOR REMOVING AND INHIBITING SENESCENT CELLS, AND USES THEREOF” (LIFECEUTIX CO., LTD., priority 2023, published 2026).

Test [1] has as its system carbon tetrachloride-induced liver fibrosis mice. The experiment in a line: Carbon tetrachloride-induced liver fibrosis mice, Example 31, Table 57. In kind it is in vivo, mouse. Conditions: CCl4-induced liver fibrosis mice, untreated = 100%. As to the method:
(§1) The control group was administered only the solution in the same volume. After the end of drug administration, the method described in each example below was performed. Liver, kidney, skin, knee joint, heart, and femur tissues were collected from mice in which natural aging was induced in the same manner as in Examples 7-2 and 7-6 of WO2023-085787 A1. Lung tissues were collected from mice in which pulmonary fibrosis was induced using the same method as in Example 24-1. Liver tissues were collected from mice in which hepatic fibrosis was induced using the same method as in Example 26, and total RNA was extracted. qRT-PCR was performed and analyzed using the synthesized cDNA. […] The mRNA amounts of p16, MMP3, and IL6 after natural aging was induced were calculated as 100% and compared with the mRNA amounts of p16, MMP3, and IL6 after treatment with the test compound. In addition, an open field test for the analysis of aging-related frailty, agtr1a mRNA analysis for kidney damage and disease evaluation, col1a1 and SDF1 mRNA analysis for skin aging evaluation such as wrinkles/loss of elasticity/hyperpigmentation, col2a1 mRNA analysis for evaluating joint aging such as osteoarthritis, sur2a mRNA analysis for evaluating cardiac aging such as decreased cardiac load resistance, ctsk mRNA analysis for evaluating bone diseases due to aging such as osteoporosis, muscle tissue weight for analyzing sarcopenia, fat tissue weight for analyzing lipoatrophy, and cataract incidence analysis were performed in mice. For cataract incidence analysis, the drug was administered twice a week under the conditions specified above, and biweekly examinations were conducted until death.

For the next test, the system named is senescent cells. The experiment in a line: Viability of senescent cells (CellTiter-Glo), Example 17, Table 13. As to conditions: Homo sapiens, read-out: Survival (%).
Test [2] concerns bleomycin-induced pulmonary fibrosis mice. The experiment in a line: Bleomycin-induced pulmonary fibrosis mice, Example 31, Table 56. In kind it is in vivo, mouse. Conditions: untreated = 100%. As to the method:
as §1
The table below quantitatively presents the evaluation results for each item in mice with bleomycin-induced pulmonary fibrosis, untreated and treated with the test compound.

A further test concerns senescent A549 cells. The experiment in a line: Viability of senescent A549 cells (CellTiter-Glo), Example 18, Table 15. As to conditions: Homo sapiens, A549, read-out: Survival (%).
The next test relates to naturally aged mice. The experiment in a line: Anti-aging evaluation in naturally aged mice, Example 31, Table 55.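 Note: Vehicle-dosed control mice received solution alone at matching volume, values compare test-compound-treated aged mice against that control.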 In kind it is in vivo, mouse.

Protocol for senescent A549 cells: Senescence-induced cancer cells treated with doxorubicin were treated with the test compound at designated concentrations, and cell viability was measured using the CellTiter-Glo Luminescent Cell Viability Assay (Promega).
Protocol for senescent cells: Cells induced to undergo senescence by doxorubicin treatment were treated with test compound at designated concentrations and measured using the CellTiter-Glo Luminescent Cell Viability Assay (Promega).

Regarding `CC1(C)[C@H]2COc3ccc4ccccc4c3[C@H]2N=C2SC(c3ccccc3)=C(c3ccccc3)N21` [LX-5201], the “Liver p16 mRNA” value in test [1] (liver) is 64 (±8.4) %. Besides, the “Col1a1 mRNA” value in test [1] is 59 (±8.7) %. In the test with senescent cells, the viability at 1.1 µM worked out at 102%, the viability at 10 µM was found to be 88.3% and the viability at 30 µM was found to be 37.7%. Moreover, in test [2] (lung), the “Lung p16 mRNA” value is recorded as 75 (±4.2) %. Moreover, in test [2], the “Col1a1 mRNA” value is 74 (±6.3) %. Also, in the test on senescent A549 cells, the viability at 1.1 µM was found to be 102%, the viability at 10 µM stood at 61.5% and the viability at 30 µM was determined as 3.8%. Further, the “Femur Ctsk mRNA” value in the test with naturally aged mice (femur, untreated = 100%) turned out to be 53%. Moreover, the “Heart Sur2a mRNA” value in the test with naturally aged mice (heart, untreated = 1.0) is recorded as 1.5 fold. In the test on naturally aged mice (joint, untreated = 1.0), the “Joint Col2a1 mRNA” value was determined as 1.9 fold. Moreover, the “Kidney Agtr1a mRNA” value in the test with naturally aged mice (kidney, untreated = 100%) turned out to be 58%. Moreover, in the test on naturally aged mice (liver, untreated = 100%), the “Liver IL6 mRNA” value turned out to be 43%, the “Liver MMP3 mRNA” value is reported as 67% and the “Liver p16 mRNA” value is recorded as 58%. In the test on naturally aged mice (open field test, untreated = 100%), the “Open Field Test Time in Center” value stood at 168%. In the test on naturally aged mice (skin, untreated = 1.0), the “Skin Col1a1 mRNA” value was found to be 2.1 Fold and the “Skin SDF1 mRNA” value amounted to 2.3 fold. In addition, in the test with naturally aged mice (untreated 0.64 g), the “Muscle Mass” value was 0.77 g. In addition, the “Fat Mass” value with naturally aged mice (untreated 0.82 g) was 0.97 g. In the test on naturally aged mice (untreated 83%), the Cataract incidence came to 49%.
As to `NS(=O)(=O)NCCNc1nonc1C(=NO)Nc1ccc(F)c(Br)c1` [LX-8804, Epacadostat], the figures for the viability at 1.1 µM with senescent cells and in the test with senescent A549 cells were 54.5% and 71.5%, respectively. The viability at 10 µM in the test with senescent A549 cells turned out to be 2.1%.
With `NCCCC(O)(P(=O)(O)O)P(=O)(O)O` [LX-9105, Alendronate], in the test on senescent cells, the viability at 1.1 µM came to 102%, the viability at 10 µM worked out at 96%, the viability at 30 µM is 89.9% and the viability at 90 µM worked out at 4.2%. Moreover, in the test with senescent A549 cells, the viability at 1.1 µM was determined as 105%, the viability at 10 µM amounted to 96.2%, the viability at 30 µM worked out at 57.1% and the viability at 90 µM turned out to be 6.9%.
Turning to `Cc1ncc([N+](=O)[O-])n1CCO` [LX-9107, Metronidazole], in the test on senescent cells, the viability at 1.1 µM stood at 106%, the viability at 10 µM is 87.3% and the viability at 30 µM turned out to be 26.2%. In the test on senescent A549 cells, the viability at 1.1 µM was found to be 95.6%, the viability at 10 µM was 77.8% and the viability at 30 µM turned out to be 5%.
Take `COc1cc(Cc2cnc(N)nc2N)cc(OC)c1OC` [LX-9114, Trimethoprim]: in the test with senescent cells, the viability at 1.1 µM amounted to 102%, the viability at 10 µM was determined as 88.6% and the viability at 30 µM was 16.1%. Moreover, in the test with senescent A549 cells, the viability at 1.1 µM was determined as 95.2%, the viability at 10 µM is 74.4% and the viability at 30 µM worked out at 20.7%.
In the case of `CC(C)C[C@H](CN)CC(=O)O` [LX-9131, Pregabalin], in the test on senescent cells, the viability at 1.1 µM stood at 81.9%, the viability at 10 µM amounted to 47.7% and the viability at 30 µM stood at 13.2%. In addition, in the test with senescent A549 cells, the viability at 1.1 µM was 91.7%, the viability at 10 µM came out at 83.3%, the viability at 30 µM was 57.9% and the viability at 90 µM is 12.4%.
For the molecule `CCOC(=O)C1=CCCC[C@H]1S(=O)(=O)Nc1ccc(F)cc1Cl` [LX-9137, Resatorvid], in the test with senescent cells, the viability at 1.1 µM stood at 90.5%, the viability at 10 µM was determined as 43.8% and the viability at 30 µM was 14.6%. Also, in the test on senescent A549 cells, the viability at 1.1 µM was found to be 91.8%, the viability at 10 µM was 37.2% and the viability at 30 µM came out at 8.8%.
In the case of `CCOc1cc(CC(=O)N[C@@H](CC(C)C)c2ccccc2N2CCCCC2)ccc1C(=O)O` [LX-9302, Repaglinide], in the test with senescent cells, the viability at 1.1 µM came to 99.7%, the viability at 10 µM was found to be 73.5% and the viability at 30 µM was 34.3%. In the test with senescent A549 cells, the viability at 1.1 µM was found to be 94.1%, the viability at 10 µM turned out to be 82.3%, the viability at 30 µM stood at 68.5% and the viability at 90 µM was 11.8%.
On to `C=CC[C@@H]1/C=C(\C)C[C@H](C)C[C@H](OC)[C@H]2O[C@@](O)(C(=O)C(=O)N3CCCC[C@H]3C(=O)O[C@H](/C(C)=C/[C@@H]3CC[C@@H](O)[C@H](OC)C3)[C@H](C)[C@@H](O)CC1=O)[C@H](C)C[C@@H]2OC` [LX-9314, Tacrolimus], for which, in the test with senescent cells, the viability at 1.1 µM came to 84.7%, the viability at 10 µM came to 69.2% and the viability at 30 µM amounted to 35.3%. In addition, in the test on senescent A549 cells, the viability at 1.1 µM is 92.9%, the viability at 10 µM came out at 57.1% and the viability at 30 µM amounted to 14.7%.
With `O=C1[C@H](CC[C@H](O)c2ccc(F)cc2)[C@@H](c2ccc(O)cc2)N1c1ccc(F)cc1` [LX-9321, Ezetimibe], in the test with senescent cells, the viability at 1.1 µM was 98.3%, the viability at 10 µM came to 86.4%, the viability at 30 µM is 79.6% and the viability at 90 µM was 19.4%. Also, in the test with senescent A549 cells, the viability at 1.1 µM was 108%, the viability at 10 µM stood at 91.4%, the viability at 30 µM is 65.8% and the viability at 90 µM is 4.1%.
In the case of `COc1ccc(Cl)cc1C(=O)NCCc1ccc(S(=O)(=O)NC(=O)NC2CCCCC2)cc1` [LX-9335, glyburide], in the test with senescent cells, the viability at 1.1 µM worked out at 85.2%, the viability at 10 µM stood at 56.3% and the viability at 30 µM came to 12.2%. In the test on senescent A549 cells, the viability at 1.1 µM was 90.2%, the viability at 10 µM worked out at 60.8% and the viability at 30 µM was 13.8%.
Take `CN(C)C[C@@H]1CCn2cc(c3ccccc32)C2=C(C(=O)NC2=O)c2cn(c3ccccc23)CCO1` [LX-9339, Ruboxistaurin]: the viability at 1.1 µM in the test with senescent cells was found to be 55.6%; in the test with senescent A549 cells it was 49.2%.
In the case of `CC(=O)NCCOC(=O)[C@H](Oc1cccc(C(F)(F)F)c1)c1ccc(Cl)cc1` [LX-9409, Arhalofenate], in the test with senescent cells, the viability at 1.1 µM amounted to 80.5%, the viability at 10 µM was 65.7% and the viability at 30 µM came out at 15.3%. Also, in the test with senescent A549 cells, the viability at 1.1 µM stood at 72.7%, the viability at 10 µM was determined as 51.9% and the viability at 30 µM was 8.7%.
Turning to `CCc1ccc(CCOc2ccc(CC3SC(=O)NC3=O)cc2)nc1` (centres unmarked) [LX-9422, Pioglitazone], in the test on senescent cells, the viability at 1.1 µM came to 94.7%, the viability at 10 µM was 56.2% and the viability at 30 µM is 6.7%. Moreover, in the test with senescent A549 cells, the viability at 1.1 µM came out at 104%, the viability at 10 µM is 62.8% and the viability at 30 µM came to 15.8%.
For `CN1CCCC1` [LX-9425, N-methyl pyrrolidine], in the test on senescent cells, the viability at 1.1 µM was determined as 102%, the viability at 10 µM was 97.5% and the viability at 30 µM worked out at 66.8%. Besides, in the test on senescent A549 cells, the viability at 1.1 µM stood at 97.5%, the viability at 10 µM turned out to be 100% and the viability at 30 µM stood at 68.2%.
In the case of `COc1ccccc1OCC(O)CN1CCN(CC(=O)Nc2c(C)cccc2C)CC1` (centres unmarked) [LX-9565, Ranolazine], in the test with senescent cells, the viability at 1.1 µM is 78.9%, the viability at 10 µM was 52.3% and the viability at 30 µM worked out at 6.1%. For the same molecule, in the test on senescent A549 cells, the viability at 1.1 µM is 97%, the viability at 10 µM was 67.3%, the viability at 30 µM was found to be 34.1% and the viability at 90 µM was 3.6%.
Regarding `CC(C)(CCCCCC(O)CCCCCC(C)(C)C(=O)O)C(=O)O` [LX-9602, Bempedoic acid], in the test with senescent cells, the viability at 1.1 µM is 113%, the viability at 10 µM worked out at 102%, the viability at 30 µM amounted to 92.2% and the viability at 90 µM stood at 11.1%. Further, in the test with senescent A549 cells, the viability at 1.1 µM is 101%, the viability at 10 µM is 96.4%, the viability at 30 µM stood at 75.4% and the viability at 90 µM was 3.8%.
As to `CCCCC[C@H](O)CC[C@@H]1[C@H]2Cc3cccc(OCC(=O)O)c3C[C@H]2C[C@H]1O` [LX-9713, Treprostinil], the viability at 1.1 µM with senescent cells was 1.8%; in the test on senescent A549 cells it was 28.4%.
On the same counts, the results for `COc1c(C)c2c(c(O)c1C/C=C(\C)CCC(=O)O)C(=O)OC2` [LX-9725, Mycophenolic acid] are 49.3% and 62.4%.
Turning to `CC[C@H]1[C@@H](O)[C@@H]2[C@H](CC[C@]3(C)[C@@H]([C@H](C)CCC(=O)O)CC[C@@H]23)[C@@]2(C)CC[C@@H](O)C[C@@H]12` [LX-9732, Obeticholic Acid], in the test on senescent cells, the viability at 1.1 µM came to 95.7%, the viability at 10 µM stood at 46.4% and the viability at 30 µM is 3.8%. In the test with senescent A549 cells, the viability at 1.1 µM worked out at 97.5%, the viability at 10 µM is 51.3% and the viability at 30 µM was 7.9%.
